From paper PMC4198064 (ACS Chemical Neuroscience, 2014)

System: HDAC subtypes 1, 2, 3, and 6
Experiment: [11C]martinostat PET imaging of whole rat brain, blocked tracer binding
Assay type: in vivo

SMILES | blockade of [11C]martinostat binding in whole brain (subtype-selective benzamides, ip pretreatment) | blockade of [11C]martinostat uptake in whole brain (500 mg/kg ip, 30 min prior to tracer)
Nc1cc(F)ccc1NC(=O)/C=C/c1cnn(C/C=C/c2ccccc2)c1 [RGFP966] | 7–10% | 
CCCC(CCC)C(=O)O [sodium valproate] |  | 16%
